Measurements reported in patent US5502068A, “Cyclopropylpyrroloindole-oligopeptide anticancer agents” (Synphar Laboratories, Inc., priority 1995, dated 1996).
≈ marks a conversion by molar mass, not a printed value. Entries after “also recorded” stand apart in the source; their conditions may differ. Like-named read-outs stand apart in the source and are kept apart here.

Columns and labels:
[1] = system: KB human nasopharyngeal carcinoma cells; assay: Cytotoxicity (antiproliferative effect), crystal violet staining; format: cell-based; settings: for IC50: Homo sapiens, KB, 72 h
Experimental: KB human nasopharyngeal carcinoma cells, were maintained in RPMI 1640 medium supplemented with 10% fetal bovine serum. KB cells were cultured in plastic tissue culture flasks and kept in an incubator at 37° C. in humidified air containing 5% CO2. These cells were free of Mycoplasma as determined with Hoechst 33258 stain.
The antiproliferative effect of compounds was determined using cell staining method by crystal violet.
One hundred-μ1 cultures were established at 10^3 cells/well in 96-well tissue culture plates (Nunc, Roskilde, Denmark). After 24 h. 100 µl of the medium containing 2 times concentrated the compounds were added to the cell culture. After an additional 3 days culture, cells were fixed to 20 µl of 25% glutaraldehyde for 15 minutes and washed with water, dried and stained with 0.05% crystal violet in 20% methanol for 15 minutes. After washing with water and drying, crystal violet was extracted with 100 µl of 50 mM NaH2 PO4 /ethanol (1:1 v/v) and OD540 was measured by the multiscanphotometer (Corona, Tokyo, Japan). A linear relationship between cell number and the amount of dye binding was found over the range of cell densities observed all experiments.

[2] = system: P388 lymphocytic leukemia cells; assay: Antitumor efficacy, i.p. P388 lymphocytic leukemia in CDF1 mice; format: in vivo, mouse; settings: 0.3 mg/kg ip
Experimental: All compounds were dissolved in dimethyl sulfoxide (DMSO), diluted in sterile 0.9% NaCl solution to 5% final DMSO concentration. BALB/c X DBA/2F1 (CDF1) mice were purchased from Japan CLEA. P388 lymphocytic leukemia cells were inoculated intraperitoneally (10^6 cells) 1 day prior to treatment into 6 week-old male CDF1 mice, and compounds were injected intraperitoneally in a total volume of 0.1 ml/10g mouse body weight. Efficacy for these models was expressed as the Increase in life span (ILS) of treated mice in comparison to untreated tumor-bearing mice. Experiment was completed on day 30 after tumor inoculation, and survivor on that day was evaluated as cured animal. Time to death (mean±SD.n=9) for untreated animals was 11.5±1.2 day and for solvent treated animals was 11.7±2.1 day.

DNA = assay: Site and sequence selective DNA alkylation by polyacrylamide gel electrophoresis (PAGE); format: biochemical
Source text: In contrast to FCE 24517, clear evidence of site and sequence selective DNA alkylation was obtained for the new CPI-oligopeptides by polyacrylamide gel electrophoresis (PAGE). […] Table 5 quantifies and compares the alkylation intensities at different sites for the CPI-oligopeptides with CC-1065. […] A detailed analysis of the frequency of occurrence of bases flanking the prominent alkylation sites for YW-052 and YW-053 compared with CC-1065 is given in Table 7.

[3] = in words; cited from earlier work
herpes viruses = settings: cited from earlier work
[4] = Table 3, KB cells, 3 days, read-out: KB cells, toxicity TD50

CCCC(=O)Nc1cc(C(=O)N2CC3CC34C2=CC(=O)c2[nH]cc(C)c24)n(C)c1 (centres unmarked) [YW-036]
IC50 ([1]; Table 4, KB cell, read-out: Cytotoxicity IC50 (KB cell)): 0.47 ng/mL (≈ 1.2 nM)
In vivo ILS P388 (ip) ([2]; maximum ILS, P388 ip, 30 day survivors not included): 24.6%
cure ([2]; survivors on day 30 evaluated as cured): 1/7

CCCC(=O)Nc1cc(C(=O)Nc2cc(C=CC(=O)N3CC4CC45C3=CC(=O)c3[nH]cc(C)c35)n(C)c2)n(C)c1 (centres unmarked) [YW-053]
Frequency of Occurrence, base A at +1 (DNA; A, position +1): 27%
Frequency of Occurrence, base A at +2 (DNA; A, position +2): 27%
Frequency of Occurrence, base A at +3 (DNA; A, position +3): 27%
Frequency of Occurrence, base A at -1 (DNA; A, position -1): 36%
Frequency of Occurrence, base A at -2 (DNA; A, position -2): 45%
Frequency of Occurrence, base A at -3 (DNA; A, position -3): 36%
Frequency of Occurrence, A/T at +1 (DNA; A/T, position +1): 82%
Frequency of Occurrence, A/T at +2 (DNA; A/T, position +2): 54%
Frequency of Occurrence, A/T at +3 (DNA; A/T, position +3): 54%
Frequency of Occurrence, A/T at -1 (DNA; A/T, position -1): 100%
Frequency of Occurrence, A/T at -2 (DNA; A/T, position -2): 100%
Frequency of Occurrence, A/T at -3 (DNA; A/T, position -3): 63%
Frequency of Occurrence, base C at +2 (DNA; C, position +2): 9%
Frequency of Occurrence, base C at +3 (DNA; C, position +3): 9%
Frequency of Occurrence, base C at -3 (DNA; C, position -3): 10%
Frequency of Occurrence, base G at +1 (DNA; G, position +1): 28%
Frequency of Occurrence, base G at +2 (DNA; G, position +2): 37%
Frequency of Occurrence, base G at +3 (DNA; G, position +3): 37%
Frequency of Occurrence, base G at -3 (DNA; G, position -3): 27%
Frequency of Occurrence, base T at +1 (DNA; T, position +1): 45%
Frequency of Occurrence, base T at +2 (DNA; T, position +2): 27%
Frequency of Occurrence, base T at +3 (DNA; T, position +3): 27%
Frequency of Occurrence, base T at -1 (DNA; T, position -1): 64%
Frequency of Occurrence, base T at -2 (DNA; T, position -2): 55%
Frequency of Occurrence, base T at -3 (DNA; T, position -3): 27%
Frequency of Occurrence, A* (site of alkylation) (DNA; alkylated base A*): 91%
Frequency of Occurrence, G* (site of alkylation) (DNA; alkylated base G*): 9%
Alkylation Sites (5'-3'), Moderate (DNA; moderate sites, listed as YW-53): TTAA, AATG, GATA; also recorded: ATAA, CTTA, GAAA
Alkylation Sites (5'-3'), Strong (DNA; strong sites, listed as YW-53): TTTA, TATA, GTTA; also recorded: AATA, ATAA

CC(=O)Nc1cc(C=CC(=O)N2CC3CC34C2=CC(=O)c2[nH]cc(C)c24)n(C)c1 (centres unmarked) [YW-059]
IC50 ([1]; Table 2, KB cells, 3 days, read-out: KB cells, toxicity TD50): 0.00015 ng/mL (≈ 0.000384 nM)
cytotoxic potency / anticancer activity in vitro ([1]; human tumor KB cell line, in words): exceeding in the case of YW-059, for example, that of any other reported natural or synthetic agents; also recorded: cytotoxic potency exceeds that of any other agent, natural or synthetic, reported to date

Cc1c[nH]c2c1C13CC1CN(C(=O)c1cc(NC(=O)CCN(C)C)cn1C)C3=CC2=O (centres unmarked) [YW-60]
IC50 [1, 4]: 184 ng/mL (≈ 437 nM)

Cc1c[nH]c2c1C13CC1CN(C(=O)c1cc(NC(=O)c4cc(NC(=O)CCN(C)C)cn4C)cn1C)C3=CC2=O (centres unmarked) [YW-61]
IC50 [1, 4]: 2490 ng/mL (≈ 4580 nM)

Cc1c[nH]c2c1C13CC1CN(C(=O)c1cc(NC(=O)c4cc(NC(=O)c5cc(NC(=O)CCN(C)C)cn5C)cn4C)cn1C)C3=CC2=O (centres unmarked) [YW-62]
IC50 [1, 4]: 1370 ng/mL (≈ 2060 nM)

Cc1c[nH]c2c1C13CC1CN(C(=O)c1nc(NC(=O)CCN(C)C)cn1C)C3=CC2=O (centres unmarked) [YW-63]
IC50 [1, 4]: 385 ng/mL (≈ 911 nM)

Cc1c[nH]c2c1C13CC1CN(C(=O)c1nc(NC(=O)c4nc(NC(=O)CCN(C)C)cn4C)cn1C)C3=CC2=O (centres unmarked) [YW-64]
IC50 [1, 4]: 2520 ng/mL (≈ 4620 nM)

Cn1cc(NC(=O)c2cc(NC(=O)c3cc(NC=O)cn3C)cn2C)cc1C(=O)NCCC(=N)N [distamycin]
cytotoxicity [3]: high cytotoxicity
therapeutic index (herpes viruses): about 3
